Experimental findings from publication PMC8904451, “Novel chalcone-derived pyrazoles as potential therapeutic agents for the treatment of non-small cell lung cancer” (Scientific Reports, 2022) are described below.

As a reminder, the IC50 is the concentration at which inhibition is half-maximal.

Holding throughout (format): cell-based, human
The subject of one test is H226 cells. The experiment in a line: MTT cell viability assay, H226. The protocol:
(§1) All the synthesized chalcone-derived pyrazoles were evaluated for their antiproliferative activity against three human non-small cell lung cancer cell lines: A-549, H226, and H460, and a nonmalignant human embryonic kidney cell line HEK293. Cisplatin and 5-fluorouracil (5-FU) were used as a reference. Cells were exposed to a range of PCH concentrations (0.5–100 µM) for 72 h and analyzed by 3-(4,5-dimethylthiazol-2-yl)-2,5-diphenyl-2H-tetrazolium bromide (MTT) assay. The results of the studies are expressed as the IC50 concentration that inhibits 50% growth of cells. […] Following treatment with PCH-1, the viability of all the tested cancer cell lines decreased in a concentration-dependent manner.
(§2) The cell viability assay was performed for A-549, H226, H460, and HEK293 cells after treatment with the test compounds by using the 3-(4,5-dimethylthiazol-2-yl)-2,5-diphenyltetrazolium bromide (MTT, Sigma-Aldrich) assay. Briefly, cells were seeded onto 96-well culture plates for attachment. After 24 h, triplicate wells were treated with DMSO (1%) and the agents. After 72 h of incubation at 37 °C in 5% CO2, the MTT solution (0.4 mg/ml) was added to each well. After 2–4 h of incubation, the medium was removed, and the formazan crystals were dissolved in 100 μl of DMSO. The absorption was measured at 450 nm with an ASYS UVM340 microplate reader (Biochrom Ltd.). The 50% inhibitory concentration (IC50) was defined as the concentration that reduced the absorbance of the DMSO-treated wells by 50% of the vehicle. The IC50 values were generated from GraphPad Prism 9 software by plotting the survival curve as a function of dose from 3 independent experiments.
A general note: Tetrazolium dyes change colour on reduction, which living cells bring about.

The next test has as its system A-549 cells. The experiment in a line: Cell cycle distribution by flow cytometry, cells synchronized with double-thymidine block. The settings on record: synchronized A-549, IC90, prolonged exposure (up to 10 h). The protocol:
Promising antiproliferative properties of PCH-1 led us to further investigate the effect of this compound on cell cycle distribution. Therefore, cell cycle progression was analyzed by quantifying DNA content using flow cytometry. […] To thoroughly analyze the course of the cycle, A-549 cells were synchronized with a double-thymidine block in the G1 phase and treated with IC90 concentration of PCH-1 for the indicated time. Slight alterations of the division cycle were visible after 2 h of incubation with the compound.
Cells were seeded onto tissue culture plates and allowed to attach for 24 h. Unsynchronized cells were treated with PCH-1 or Etoposide at IC90 concentration for 24 and 48 h, while synchronized cells were treated with PCH-1 or Etoposide at IC90 concentration for 2, 4, 6, 8, and 10 h. Synchronization of the cells was performed as described previously by Chen et al.[77]. Next, the cells were trypsinized, fixed in ice-cold 75% ethanol, and stored overnight at − 20 °C. After centrifugation, the cells were rinsed with PBS and stained with […] PI (Sigma-Aldrich) and […] RNaseA (Thermo Fisher) in PBS for 30 min at RT. The distribution of the cells in different phases of the cell cycle was determined by flow cytometry (Guava EasyCyte 8 cell sorter, Merck Millipore) and FlowJo software v10. Each experiment was repeated independently three times.
(In general: Flow cytometry measures light scatter and fluorescence of single cells or particles in a stream.)

Test [1] has as its system caspase-3/7 in A-549 cells. The experiment in a line: Caspase-3/7 activation by flow cytometry, A-549. The following applies: IC90. The procedure:
(§3) To explain the type of cell death that cancer cells undergo after treatment with PCH-1, the ability of the compound to activate caspases 3–7 was determined by flow cytometry. […] The most pronounced activation of caspase 3 occurred equally in A-549 and H226 cell lines after 48 h of treatment and was sevenfold greater than that in the vehicle.
(§4) Cells were seeded onto tissue culture plates and allowed to attach for 24 h. Next, the cells were treated with PCH-1 or Etoposide at IC90 concentration for 6, 24, and 48 h. After incubation, the cells were harvested by trypsinization, rinsed twice with PBS, and stained with Annexin V Alexa Fluor™ 488 conjugate (Thermo Fisher, #A13201) for apoptosis assay and with CellEvent™ Caspase-3/7 Green Flow Cytometry Assay Kit (Thermo Fisher, #C10427) for caspase-3/7 activation according to the manufacturer’s protocols. The analysis was performed with Guava EasyCyte 8 cell sorter (Merck Millipore) and FlowJo software v10. Each experiment was repeated independently three times.

Test [2] deals with caspase-3/7 in H226 cells. Nature of the test: Caspase-3/7 activation by flow cytometry, H226. The following applies: IC90. The procedure: as §3, §4
A further test has as its system HEK293 cells. Nature of the test: MTT cell viability assay, HEK293. The following applies: Homo sapiens, HEK293, 72 h, nonmalignant cells, read-out: IC50 ± SD, growth inhibition, HEK293. The protocol: as §1, §2
Test [3] concerns A-549, H226, and H460 cells. The experiment in a line: Colony formation assay. The following applies: 1, 5, 10 µM for 24 h, then 9 days culture. The protocol:
Cells were seeded onto 6-well plates (500 cells/well) and allowed to attach for 24 h in a fresh RPMI medium. Next, the cells were pretreated with DMSO (1%) solution of the examined compound (at the concentrations of 1, 5, and 10 µM) for 24 h. The medium containing compound was then changed, and the cells were cultured for additional 9 days. After incubation, the cells were washed twice with phosphate-buffered saline (PBS), fixed with 100% methanol for 30 min, and stained with 0.5% crystal violet for 15 min. The colonies were photographed and counted by ImageJ software.

The next test relates to H460 cells. The experiment in a line: MTT cell viability assay, H460. The procedure: as §1, §2
For test [4], the system named is caspase-3/7 in H460 cells. The experiment in a line: Caspase-3/7 activation by flow cytometry, H460. The following applies: IC90. The protocol:
as §3, §4

On to `COc1ccc(C2CC(c3cc4c(cc3OC)OCO4)=NN2C(C)=O)cc1` (stereo not drawn) [PCH-1, 1-[3-(6-methoxy-2H-1,3-benzodioxol-5-yl)-5-(4-methoxyphenyl)-4,5-dihydro-1H-pyrazol-1-yl]ethan-1-one], for which the “superior activity to the reference compound Cisplatin, H226” value in the test with H226 cells (72 h IC50 ratio) is around 3.7 fold. Moreover, the IC50 in the test on H226 cells (Homo sapiens, NCI-H226, 72 h, MTT, read-out: IC50 ± SD, growth inhibition, H226) is 4.69 ± 0.43 µM; in the test on HEK293 cells, 20.9 ± 2.34 µM; in the test with H460 cells (Homo sapiens, NCI-H460, 72 h, MTT, read-out: IC50 ± SD, growth inhibition, H460), 8.4 ± 1.1 µM. Also, in the test with A-549 cells, the “increase in G2/M population as compared to control” value is listed as 50.12%. The “caspase-3/7 activation, increase compared to control, A-549” value in test [1] (6 h) worked out at 2.6 fold. In addition, the “activation of caspase 3 vs vehicle, A-549” value in test [1] (48 h) was “sevenfold”. In test [1] (later exposure), the “cells with activated caspase 3/7 vs control, A-549” value is listed as “greater than 5.8 times”. Besides, the “caspase-3/7 activation, increase compared to control, H226” value in test [2] (6 h) was found to be 2.9 fold. In test [2] (48 h), the “activation of caspase 3 vs vehicle, H226” value was “sevenfold”. Also, the “cells with activated caspase 3/7 vs control, H226” value in test [2] (later exposure) is given as above 4.7 times. Further, in test [3], the number of colonies entry is on record as “reduced the number of colonies in all the tested cell lines in a dose-dependent manner”. Besides, in the test on H460 cells (72 h IC50 ratio), the “superior activity to the reference compound Cisplatin, H460” value is listed as around 2.6 fold. Further, in test [4] (6 h), the “caspase-3/7 activation, increase compared to control, H460” value is recorded as 3.15 fold. Besides, the “cells with activated caspase 3/7 vs control, H460” value in test [4] (later exposure) is “remaining approximately constant”.
